# Publication PMC6175823, “Identification of novel acetylcholinesterase inhibitors designed by pharmacophore-based virtual screening, molecular docking and bioassay” (Scientific Reports, 2018)
# “Also recorded” adds a separate entry of the source.
# Molecular target: T1, horse butyrylcholinesterase (Equus caballus, UniProt P81908)
# T1 construct: purchased Sigma (St. Louis, MO)
# Test: biochemical
# Type: biochemical
# Details: modified Ellman's method, horse BuChE; read-out: bAchE IC50
# Text: Acetylcholinesterase from electrophorus electricus (electric eel), horse butyrylcholinesterase, Acetylcholine iodide, S-butyrylthiocholine chloride and 5,5′-dithio-bis-nitrobenzoic acid (DTNB) were purchased from the Sigma (St. Louis, MO) while bovine serum albumin (BSA) purchased from Research and Diagnostic Technology (RDT). Buffers and other chemicals were purchases from pure chemicals as a pure experimental grade. All the reagents and experimental conditions were same as described by previous reports. […] Acetylcholinesterase and butyrylcholinesterase inhibition was performed spectrometrically using acetylthiocholine and butyrylthiocholine as a substrate. Experiment was performed with slight modification in the method described by Ellman et al.[78]. Then, […] sodium phosphate buffer (pH 8.0), enzyme preparation and different concentration of test compound was mixed and incubated for 30 min followed by the addition of DTNB and the reactions was initiated by adding respective enzyme substrate like acetylthiocholine iodide, butyrylthiocholine chloride for Acetylcholinesterase and butyrylcholinesterase inhibition assay respectively. The hydrolysis of acetylthiocholine or butyrylthiocholineyield a dark yellow 5-thio-2-nitrobenzoate anion because of the reaction between DTNB with enzyme and enzyme substrate. […] Solvent used for compound dilution was used for the negative control. Percentage inhibition was calculated taking negative control as 100%.
# T1 sequence (P81908 whole entry): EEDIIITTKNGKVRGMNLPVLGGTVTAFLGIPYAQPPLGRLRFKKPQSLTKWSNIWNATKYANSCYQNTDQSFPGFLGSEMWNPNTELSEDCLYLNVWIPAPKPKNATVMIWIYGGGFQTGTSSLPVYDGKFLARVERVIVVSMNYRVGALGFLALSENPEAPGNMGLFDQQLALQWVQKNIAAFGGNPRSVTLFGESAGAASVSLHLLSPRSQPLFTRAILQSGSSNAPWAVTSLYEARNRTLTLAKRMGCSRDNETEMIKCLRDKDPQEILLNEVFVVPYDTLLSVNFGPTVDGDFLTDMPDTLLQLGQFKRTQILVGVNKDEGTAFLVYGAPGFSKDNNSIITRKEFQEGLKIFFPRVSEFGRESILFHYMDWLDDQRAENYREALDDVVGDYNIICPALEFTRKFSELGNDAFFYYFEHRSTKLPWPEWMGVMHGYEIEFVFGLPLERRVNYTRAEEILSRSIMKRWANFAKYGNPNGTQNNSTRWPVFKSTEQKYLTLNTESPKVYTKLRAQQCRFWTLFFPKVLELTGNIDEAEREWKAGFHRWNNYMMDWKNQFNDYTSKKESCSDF
row,SMILES,IC50 [µM]
1,"COc1ccccc1OCCN(CC(=O)CC(O)c1cccc(-c2ccccc2)c1)Cc1ccccc1 (stereo not drawn) [5c, 4-([1,1′-biphenyl]-3-yl)-1-(benzyl(2-(2-methoxyphenoxy)ethyl)amino)-4-hydroxybutan-2-one]",> 500
2,"COc1ccccc1OCCN(Cc1ccccc1)CC(O)CC(O)c1cccc2[nH]c3ccccc3c12 (stereo not drawn) [6a, 4-(benzyl(2-(2-methoxyphenoxy)ethyl)amino)-1-(9H-carbazol-4-yl)butane-1,3-diol]",> 500

# Same assay, conditions: result in words
row,SMILES,effect against BchE
1,"COc1ccccc1OCCN(CC(=O)CC(O)c1cccc(-c2ccccc2)c1)Cc1ccccc1 (stereo not drawn) [5c, 4-([1,1′-biphenyl]-3-yl)-1-(benzyl(2-(2-methoxyphenoxy)ethyl)amino)-4-hydroxybutan-2-one]",without inhibiting; also recorded: did not showed the effect
2,"COc1ccccc1OCCN(Cc1ccccc1)CC(O)CC(O)c1cccc2[nH]c3ccccc3c12 (stereo not drawn) [6a, 4-(benzyl(2-(2-methoxyphenoxy)ethyl)amino)-1-(9H-carbazol-4-yl)butane-1,3-diol]",without inhibiting; also recorded: did not showed the effect

# Test system: bAchE
# Test: not given
# Details: read-out: bAchE IC50; Tacrine (Ellman method); source not given; cited from earlier work
row,SMILES,IC50 [µM]
1,Nc1c2c(nc3ccccc13)CCCC2 [Tacrine],0.058

# Molecular target: T2, Acetylcholinesterase from electrophorus electricus (electric eel) (Electrophorus electricus, UniProt O42275)
# T2 construct: purchased Sigma (St. Louis, MO)
# T2 sequence (O42275 24-633): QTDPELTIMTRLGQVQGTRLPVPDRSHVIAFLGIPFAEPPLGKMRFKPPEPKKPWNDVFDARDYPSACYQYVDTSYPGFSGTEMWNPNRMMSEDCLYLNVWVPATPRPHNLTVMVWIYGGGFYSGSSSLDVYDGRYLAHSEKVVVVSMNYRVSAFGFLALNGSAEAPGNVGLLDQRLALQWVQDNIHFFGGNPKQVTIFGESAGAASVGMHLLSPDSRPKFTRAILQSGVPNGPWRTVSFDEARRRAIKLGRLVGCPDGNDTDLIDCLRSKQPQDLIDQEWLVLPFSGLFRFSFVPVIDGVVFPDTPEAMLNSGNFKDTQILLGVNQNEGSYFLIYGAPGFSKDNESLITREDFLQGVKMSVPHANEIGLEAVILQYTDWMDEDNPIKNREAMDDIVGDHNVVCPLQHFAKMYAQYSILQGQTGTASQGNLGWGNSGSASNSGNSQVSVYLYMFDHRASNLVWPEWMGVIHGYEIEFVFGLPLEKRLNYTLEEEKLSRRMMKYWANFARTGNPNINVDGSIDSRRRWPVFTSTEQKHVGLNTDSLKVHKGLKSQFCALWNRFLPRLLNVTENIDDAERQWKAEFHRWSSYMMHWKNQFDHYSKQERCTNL
# Test: biochemical
# Details: modified Ellman's method, eeAChE; read-out: AchE IC50
# Text: Acetylcholinesterase from electrophorus electricus (electric eel), horse butyrylcholinesterase, Acetylcholine iodide, S-butyrylthiocholine chloride and 5,5′-dithio-bis-nitrobenzoic acid (DTNB) were purchased from the Sigma (St. Louis, MO) while bovine serum albumin (BSA) purchased from Research and Diagnostic Technology (RDT). Buffers and other chemicals were purchases from pure chemicals as a pure experimental grade. All the reagents and experimental conditions were same as described by previous reports. […] Acetylcholinesterase and butyrylcholinesterase inhibition was performed spectrometrically using acetylthiocholine and butyrylthiocholine as a substrate. Experiment was performed with slight modification in the method described by Ellman et al.[78]. Then, […] sodium phosphate buffer (pH 8.0), enzyme preparation and different concentration of test compound was mixed and incubated for 30 min followed by the addition of DTNB and the reactions was initiated by adding respective enzyme substrate like acetylthiocholine iodide, butyrylthiocholine chloride for Acetylcholinesterase and butyrylcholinesterase inhibition assay respectively. The hydrolysis of acetylthiocholine or butyrylthiocholineyield a dark yellow 5-thio-2-nitrobenzoate anion because of the reaction between DTNB with enzyme and enzyme substrate. […] Percentage inhibition was calculated taking negative control as 100%.
row,SMILES,IC50 [µM]
1,"COc1ccccc1OCCN(CC(=O)CC(O)c1cccc(-c2ccccc2)c1)Cc1ccccc1 (stereo not drawn) [5c, 4-([1,1′-biphenyl]-3-yl)-1-(benzyl(2-(2-methoxyphenoxy)ethyl)amino)-4-hydroxybutan-2-one]",58.3
2,"COc1ccccc1OCCN(Cc1ccccc1)CC(O)CC(O)c1cccc2[nH]c3ccccc3c12 (stereo not drawn) [6a, 4-(benzyl(2-(2-methoxyphenoxy)ethyl)amino)-1-(9H-carbazol-4-yl)butane-1,3-diol]",66

# Test system: AChE
# Test: not given
# Details: ChEMBL dataset, Ellman assay ref 43; cited from earlier work
row,SMILES,Exp. pIC50
1,O=C(CCC1CCN(Cc2ccccc2)CC1)c1ccc2c(c1)CCN2 [CHEMBL75110],7.699
2,O=C1Cc2cc3c(CCC4CCN(Cc5ccccc5)CC4)noc3cc2N1 [CHEMBL359570],9.481
3,c1ccc(CN2CCC(Nc3ccc(-c4ccccc4)nn3)CC2)cc1 [CHEMBL1083058],4.187
4,O=C(CCC1CCN(Cc2cccc(F)c2)CC1)c1ccc2c(c1)NCCCC2 [CHEMBL308093],6.839
5,O=C1Cc2cc3onc(CCC4CCN(Cc5ccccc5)CC4)c3cc2N1 [CHEMBL328468],9.022
6,COc1ccc(N(CCC2CCN(Cc3ccccc3)CC2)C(C)=O)cc1 [CHEMBL141801],6.155
7,O=C1c2ccccc2CN1CCC1CCN(Cc2ccccc2)CC1 [CHEMBL333909],7.009
8,CN1CCCc2ccc(C(=O)CCC3CCN(Cc4ccccc4)CC3)cc21 [CHEMBL76470],7.444
9,O=C(CCC1CCN(Cc2ccccc2)CC1)c1ccc2c(c1)CCN2c1ccccc1 [CHEMBL1085858],7.167
10,Cc1ccc2onc(CCC3CCN(Cc4ccccc4)CC3)c2c1 [CHEMBL433379],8.108
11,O=C(CCC1CCN(Cc2cccc(F)c2)CC1)c1ccc2c(c1)CCN2 [CHEMBL308807],7.796
12,O=C(CCC1CCN(Cc2ccccc2)CC1)c1ccc2c(c1)CCCN2c1ccccc1 [CHEMBL1083662],7.268
13,O=C(CCC1CCN(Cc2ccccc2)CC1)c1ccc2c(c1)NCCC2 [CHEMBL73593],6.785
14,COc1ccc(C(=O)N(CCC2CCN(Cc3ccccc3)CC2)c2ccccc2)cc1 [CHEMBL141873],6.229
15,O=C(CCC1CCN(Cc2ccccc2)CC1)c1ccc2c(c1)CCCN2 [CHEMBL1083661],7.268
16,O=C1c2ccc([N+](=O)[O-])cc2C(=O)N1CCC1CCN(Cc2ccccc2)CC1 [CHEMBL105874],7.903
17,O=C(CCC1CCN(Cc2ccccc2)CC1)c1ccc2[nH]c(-c3ccccc3)nc2c1 [CHEMBL1082436],7.481
18,COc1ccc2c(c1)C(=O)N(CCC1CCN(Cc3ccccc3)CC1)C2=O [CHEMBL140770],8.097
19,O=C1CCc2cc3c(CCC4CCN(Cc5ccccc5)CC4)noc3cc2N1 [CHEMBL329231],9.244
20,O=c1c2ccccc2ccn1CCC1CCN(Cc2ccccc2)CC1 [CHEMBL141203],5.959
21,O=C(Nc1ccccc1)c1ccc2c(c1)C(=O)N(CCC1CCN(Cc3ccccc3)CC1)C2=O [CHEMBL1084256],8.658
22,CCn1c(C)nc2cc(C(=O)CCC3CCN(Cc4ccccc4)CC3)ccc21 [CHEMBL1082435],8.367

row,SMILES,Exp. pIC50
1,O=C1c2cccc([N+](=O)[O-])c2C(=O)N1CCC1CCN(Cc2ccccc2)CC1 [CHEMBL141001],8.046
2,CCN1CCc2cc(C(=O)CCC3CCN(Cc4ccccc4)CC3)ccc21 [CHEMBL308793],7.959
3,COc1ccccc1CN1CCC(CCC(=O)c2ccc3c(c2)NCCCC3)CC1 [CHEMBL309173],5.576
4,O=C(CCC1CCN(Cc2cccc([N+](=O)[O-])c2)CC1)c1ccc2c(c1)NCCCC2 [CHEMBL307832],6.409
5,Cc1nc2ccc(C(=O)CCC3CCN(Cc4ccccc4)CC3)cc2[nH]1 [CHEMBL1084790],7.921
6,O=C(CCC1CCN(Cc2cccc(Cl)c2)CC1)c1ccc2c(c1)NCCCC2 [CHEMBL420378],6.478
7,CC(=O)N(CCC1CCN(Cc2ccccc2)CC1)c1cccc(F)c1 [CHEMBL141167],7.187
8,O=C1c2cccnc2C(=O)N1CCC1CCN(Cc2ccccc2)CC1 [CHEMBL140106],7.886
9,O=C1Nc2ccccc2CN1CCC1CCN(Cc2ccccc2)CC1 [CHEMBL141276],7.886
10,O=C1Cc2ccccc2CN1CCC1CCN(Cc2ccccc2)CC1 [CHEMBL140990],7.77
11,CN1CCc2cc(C(=O)CCC3CCN(Cc4ccccc4)CC3)ccc21 [CHEMBL311017],8
12,O=C(Nc1ccc2c(c1)C(=O)N(CCC1CCN(Cc3ccccc3)CC1)C2=O)c1ccccc1 [CHEMBL138107],8.921
13,Nc1cccc2c1C(=O)N(CCC1CCN(Cc3ccccc3)CC1)C2=O [CHEMBL138442],7.959
14,O=C(CCC1CCN(Cc2ccccc2)CC1)c1ccc2c(c1)OCO2 [CHEMBL1082434],7.523
15,O=C(c1ccccc1)c1ccc2c(c1)C(=O)N(CCC1CCN(Cc3ccccc3)CC1)C2=O [CHEMBL140999],8.62
16,O=C(CCC1CCN(Cc2ccccc2Cl)CC1)c1ccc2c(c1)CCN2 [CHEMBL306175],7.119
17,O=C(c1ccc([N+](=O)[O-])cc1)N(CCC1CCN(Cc2ccccc2)CC1)c1ccccc1 [CHEMBL126354],8.268
18,CN1CCCc2cc(C(=O)CCC3CCN(Cc4ccccc4)CC3)ccc21 [CHEMBL1083660],7.62
19,Cc1cc(-c2ccccc2)n[nH]c1=NCCC1CCN(Cc2ccccc2)CC1 [CHEMBL94054],6.495
20,N#Cc1ccc2c(CCC3CCN(Cc4ccccc4)CC3)noc2c1 [CHEMBL92775],6.996
21,Brc1ccc2c(CCC3CCN(Cc4ccccc4)CC3)noc2c1 [CHEMBL330004],7.301
22,COc1cccc(N(CCC2CCN(Cc3ccccc3)CC2)C(C)=O)c1 [CHEMBL127527],7.337

row,SMILES,Exp. pIC50
1,Cc1cccc(CN2CCC(CCC(=O)c3ccc4c(c3)CCN4)CC2)c1 [CHEMBL306179],7.301
2,CN(CCNc1ccc(-c2ccccc2)nn1)Cc1ccccc1 [CHEMBL1086185],3.77
3,O=c1c2ccccc2ncn1CCC1CCN(Cc2ccccc2)CC1 [CHEMBL140328],5.921
4,CN(CCCCNc1ccc(-c2ccccc2)nn1)Cc1ccccc1 [CHEMBL1084257],4.959
5,O=C1Cc2ccccc2C(=O)N1CCC1CCN(Cc2ccccc2)CC1 [CHEMBL141042],7.638
6,O=c1[nH]c2cc(Cl)ccc2c(=O)n1CCC1CCN(Cc2ccccc2)CC1 [CHEMBL138552],8.347
7,CCCN1CCCCc2ccc(C(=O)CCC3CCN(Cc4ccccc4)CC3)cc21 [CHEMBL307513],5.876
8,O=C(Nc1cccc2c1C(=O)N(CCC1CCN(Cc3ccccc3)CC1)C2=O)c1ccccc1 [CHEMBL141622],6.469
9,O=C1c2ccccc2CCN1CCC1CCN(Cc2ccccc2)CC1 [CHEMBL142014],6
10,CC(=O)Nc1ccc2c(c1)C(=O)N(CCC1CCN(Cc3ccccc3)CC1)C2=O [CHEMBL433678],8.553
11,O=C1c2ccccc2C(=O)N1CCC1CCN(Cc2ccccc2)CC1 [CHEMB L106891],7.097
12,O=C1c2ccccc2NCN1CCC1CCN(Cc2ccccc2)CC1 [CHEMBL141810],6.097
13,CCC(=O)N(CCC1CCN(Cc2ccccc2)CC1)c1ccccc1 [CHEMBL141853],6.081
14,O=C(c1ccc(F)cc1)N(CCC1CCN(Cc2ccccc2)CC1)c1ccccc1 [CHEMBL140737],7.745
15,Cc1nc2ccc(C(=O)CCC3CCN(Cc4ccccc4)CC3)cc2s1 [CHEMBL1084275],8.167
16,COc1ccccc1CN1CCC(CCC(=O)c2ccc3c(c2)CCN3)CC1 [CHEMBL306776],6.09
17,CCN1CCCCc2ccc(C(=O)CCC3CCN(Cc4ccccc4)CC3)cc21 [CHEMBL310467],6.425
18,O=C(c1ccncc1)N(CCC1CCN(Cc2ccccc2)CC1)c1ccccc1 [CHEMBL340621],7.194
19,O=C1Cc2c(ccc3c(CCC4CCN(Cc5ccccc5)CC4)noc23)N1 [CHEMBL95020],8.444
20,c1ccc(CN2CCC(CNc3ccc(-c4ccccc4)nn3)CC2)cc1 [CHEMBL1083367],4.252
21,CN(CCCCCNc1ccc(-c2ccccc2)nn1)Cc1ccccc1 [CHEMBL1083057],6.131
